Literature values as cited in US20230241051A1, “LONG-ACTING FORMULATIONS” (Janssen Pharmaceutica NV, priority 2020, published 2023).

Tests used:
Conditions in all cases: cited from earlier work
M. tuberculosis = tested on: M. tuberculosis
[1] = molecular target: mycobacterial ATP synthase (Mycobacterium tuberculosis, UniProt P9WPS1+P9WPV7)
Mycobacterium leprae = tested on: Mycobacterium leprae

Sequence of mycobacterial ATP synthase (P9WPS1 whole entry, looked up): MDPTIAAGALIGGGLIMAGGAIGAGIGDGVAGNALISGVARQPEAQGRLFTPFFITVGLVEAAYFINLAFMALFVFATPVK
Sequence of mycobacterial ATP synthase (P9WPV7 whole entry, looked up): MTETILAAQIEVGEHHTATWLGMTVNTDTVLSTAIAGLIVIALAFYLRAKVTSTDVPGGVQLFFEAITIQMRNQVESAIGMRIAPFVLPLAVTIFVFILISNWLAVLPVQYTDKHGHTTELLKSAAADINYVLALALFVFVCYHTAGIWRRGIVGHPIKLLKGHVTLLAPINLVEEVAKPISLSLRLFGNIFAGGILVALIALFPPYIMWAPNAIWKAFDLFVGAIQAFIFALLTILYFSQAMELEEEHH

COc1nc2ccc(Br)cc2cc1[C@@H](c1ccccc1)[C@@](O)(CCN(C)C)c1cccc2ccccc12 [bedaquiline]
minimal dose killing 99% of bacilli (M. tuberculosis): 30 mg/kg/wk
selectivity index for mycobacterial ATP synthase versus eukaryotic mitochondrial ATP synthase [1]: more than 20000
minimal dose killing 99% of bacilli (Mycobacterium leprae; M. lepra): < 5.0 mg/kg/wk
activity against Mycobacterium leprae (Mycobacterium leprae; mice): bactericidal
